Measurements from patent US9598415B2, “Compounds as modulators of RORγ” (Boehringer Ingelheim International GmbH, priority 2014, dated 2017).

What follows are compounds tested against RORγ (Homo sapiens (Human), UniProt P51449) (assay: Reporter Gene Assay (RGA): inhibition of RORγ transactivation of a luciferase reporter). Conditions: transiently transfected HEK 293 cells (Gal4DBD hRORC LBD), 20-24 h incubation.
Chain of RORγ (P51449 269-508): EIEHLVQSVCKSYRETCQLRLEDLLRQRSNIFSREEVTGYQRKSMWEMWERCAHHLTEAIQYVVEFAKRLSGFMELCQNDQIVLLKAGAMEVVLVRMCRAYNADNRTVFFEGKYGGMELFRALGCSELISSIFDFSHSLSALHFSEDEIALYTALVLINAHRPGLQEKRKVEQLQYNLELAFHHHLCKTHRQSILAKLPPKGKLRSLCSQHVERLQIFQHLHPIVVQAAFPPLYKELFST
Format: cell-based
Work on CCS(=O)(=O)c1ccc(CNc2nc3cnc(-c4c(OC)ncnc4C4CC4)nc3n(C(C)C)c2=O)cc1 [Example 143] yielded an IC50 of 0.134 µM.
For CCS(=O)(=O)c1ccc(CNc2nc3cnc(-c4c(C)ncnc4C4CC4)nc3n([C@@H]3C[C@H]4CC[C@@H]3C4)c2=O)nc1 [Example 220], the IC50 was 0.39 µM.
CNS(=O)(=O)c1ccc(CNc2nc3cnc(-c4c(C)ncnc4C4CC4)nc3n([C@@H](C)C3CC3)c2=O)cc1 [Example 134] showed an IC50 of 0.4 µM.
